These results are taken from patent US20240246941A1, “SUBSTITUTED 4-(3-AMINOPROP-1-YL)AMINOQUINOLINE ANALOGS AS MODULATORS OF MELANOMA-ASSOCIATED ANTIGEN 11 UBIQUITIN LIGASE” (ST. JUDE CHILDREN'S RESEARCH HOSPITAL, INC., priority 2020, published 2024).

Sequence of interaction between GST-MAGEA11 MHD and FAM-PCF11_4 peptide (MAGE-A11:PCF11) (P43364 218-429): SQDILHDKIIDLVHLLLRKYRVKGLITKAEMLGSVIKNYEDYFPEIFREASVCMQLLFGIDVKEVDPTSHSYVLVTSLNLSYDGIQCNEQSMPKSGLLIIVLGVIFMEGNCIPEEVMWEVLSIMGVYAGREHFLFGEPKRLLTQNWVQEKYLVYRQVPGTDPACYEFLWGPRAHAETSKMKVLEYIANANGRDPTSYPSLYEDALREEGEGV

One experiment has as its target interaction between GST-MAGEA11 MHD and FAM-PCF11_4 peptide (MAGE-A11:PCF11) (Homo sapiens (Human), UniProt P43364). The experiment in a line: TR-FRET dose response competition assay for disruption of MAGE-A11:PCF11 binding. The following applies: Dose response TR-FRET screening of nine scaffold groups against MAGE-A11:PCF11; read-out: consensus IC50. From the text: TR-FRET Assays and High-throughput Screen. Terbium-anti-GST antibody, 1 M Tris pH 7.5 1 M MgCl2 and 1 M DTT were purchased from Invitrogen (Carlsbad, CA), BSA was purchased from Sigma (St. Louis, MO). Dimethyl sulfoxide (DMSO) was purchased from Fisher Scientific (Pittsburgh, PA). Black 384-well low volume plates and 384-well polypropylene compound plates were purchased from Corning Incorporated (Tewksbury, MA). The St. Jude FDA drug and Bioactive library (11,293 chemicals), Drug-like library (10,073 chemicals) and Lead-like library (10,041 chemicals) were custom assembled and purchased from commercial sources including Sigma, Microsource (Gaylordsville, CT), selleckchem (Houston, TX), ChemDiv (San Diego, CA), ChemBridge (San Diego, CA), Enamine (Monmouth Jct., NJ), and Life Chemicals (Niagara-on-the-Lake, ON, Canada). They were arrayed (10 mM in DMSO) in 384-well polypropylene compound plates with columns 1, 2, 13 and 14 empty which were reserved for controls.
The TR-FRET assay buffer with a formula of 50 mM Tris pH 7.5, 20 mM MgCl2, 0.1 mg/ml BSA and 1 mM DTT was freshly prepared before each experiment. All TR-FRET assays were performed in black 384-well plates with 20 μl/well assay volume in the TR-FRET assay buffer at room temperature (approximately 25° C.). All peptides or compounds were solubilized in DMSO. To test the competitive activity of peptides or compounds against the interaction between GST-MAGEA11 MHD and FAM-PCF11_4 peptide, 10 μl/well peptide or compound at specified concentration was dispensed into a black 384-well low volume plate, followed by 5 μl/well FAM-PCF11_4 (800 nM), 5 μl/well Tb-anti-GST (20 nM) and GST-MAGEA11 MHD (20 nM). The assay components in each well was then mixed by shaking the plate on an IKA MTS 2/4 digital microtiter plate shaker (IKA Works; Wilmington, NC, USA) at 900 RPM for 1 minute. The plate was further centrifuged in an Eppendorf 5810 centrifuge with an A-4-62 swing-bucket rotor (Eppendorf AG, Hamburg, Germany) at 201 g (1000 rpm) for 30 seconds. The plate was then incubated for 90 min with a lid to avoid light exposure to the assay components. After incubation, the fluorescent emission signals at 520 nm and 490 nm channels of individual wells were measured with a PHERAstar FS plate reader (BMG Labtech; Durham, NC, USA) by using a 340 nm excitation filter, 100 μs delay time, and 200 μs integration time. The TR-FRET fluorescence emission ratio (TR-FRET signal) for each well was presented as 10 000×520 nm/490 nm, which was used directly for curve fitting, or further converted to % Inhibition based on the respective positive and negative controls. The graphic software GraphPad Prism 4.81 (GraphPad Software; La Jolla, CA, USA) was used to generate curves and derive IC50 values of tested peptides or compounds, if applicable.
TR-FRET inhibitory activity characterization of a panel of PCF11 peptides against the interaction between GST-MAGEA11 MHD and FAM-PCF11_4 was performed as follows. In a 20 μl/well assay volume, dilutions of PCF11_1 to PCF11_8 peptides (concentrations ranged from 3.1 nM to 100 μM for peptides PCF11_4, PCF11_5, PCF11_6 and PCF11_8 in a 1-to-2 dilution pattern for 16 concentration levels, and ranged from 48.9 nM to 100 μM for peptides of PCF11_1, PCF11_2, PCF11_3 and PCF11_7 in a 1-to-2 dilution pattern for 12 concentration levels), 200 nM FAM-PCF11_4, 5 nM Tb-anti-GST and 5 nM GST-MAGEA11 were mixed together and incubated for 90 min before the TR-FRET signal for each well was measured. The final DMSO concentration was 1.1% (v/v). […] The signal of each peptide-treated well (Signalpeptide) was normalized to the positive and negative controls to derive % inhibition of the peptide at a specific concentration with equation 1. Where applicable, the % Inhibition data were fit into a Sigmoidal dose response equation to derive IC50 values.
TR-FRET screen for identifying MAGEA11 small molecule inhibitors was performed as follows.
In general terms: Time-resolved FRET reads energy transfer from a long-lived donor to a nearby acceptor.
In general, IC50 refers to the concentration needed to halve the response being measured. For `CC(=O)N(C1=C(Cl)C(=O)c2ccccc2C1=O)c1cccc(O)c1` [SJ000046178-1], the IC50 was found to be 69.9 µM.

On to `O=C1C(Cl)=C(Nc2cccc(Br)c2)C(=O)c2ccccc21` [SJ000048680-1], for which the IC50 came to 69.9 µM. Still for that read-out and setting: the result for `O=C1c2ccccc2NC(c2ccc([N+](=O)[O-])cc2)N1Cc1ccccc1` (centres unmarked) [SJ000051049-1] reads 69.9 µM. Still for that read-out and setting: the result for `COc1ccc(-c2nc(C#N)c(N3CCOCC3)o2)cc1` [SJ000051527-1] reads 69.9 µM; that for `CC(=O)NC1=C(N)C(=O)c2ccccc2C1=O` [SJ000053101-1], 69.9 µM. On the same count and under the same terms, the figure for `O=C(NCC(O)CO)c1ccc2[nH]c3ccccc3c2c1` (centres unmarked) [SJ000053810-1] is 69.9 µM. `OCCNCCNCc1ccc2[nH]c3ccccc3c2c1` [SJ000053962-1]: the concentration for half-maximal inhibition (IC50) amounted to 69.9 µM. Still for that read-out and setting: the figure for `CN(C)CCCNCc1ccc2[nH]c3ccccc3c2c1` [SJ000054243-1] is 69.9 µM; for `CC(=O)NC1=C(Cl)C(=O)c2ccccc2C1=O` [SJ000067071-3] it is 69.9 µM. The same measure, in the same setting: the result for `COc1ccc(Nc2nc(N)c3ccccc3n2)cc1` [SJ000067204-1] reads 69.9 µM; that for `COP(=O)(OC)c1nc(-c2ccc(C)cc2)oc1N1CCOCC1` [SJ000090156-1], 69.9 µM; that for `COP(=O)(OC)c1nc(-c2ccc(Br)cc2)oc1N1CCOCC1` [SJ000090176-1], 69.9 µM.

For `COP(=O)(OC)c1nc(-c2ccc(Cl)cc2)oc1N1CCOCC1` [SJ000090185-1], the IC50 amounted to 17.4 µM. On the same count and under the same terms, the figure for `CCOP(=O)(OCC)c1nc(-c2ccc(Cl)cc2)oc1N1CCOCC1` [SJ000090230-1] is 69.9 µM. Same read-out and setting: the result for `COP(=O)(OC)c1nc(-c2ccc([N+](=O)[O-])cc2)oc1N1CCOCC1` [SJ000092444-1] reads 69.9 µM; that for `CCOP(=O)(OCC)c1nc(-c2ccc([N+](=O)[O-])cc2)oc1N1CCOCC1` [SJ000092459-1], 69.9 µM; that for `CN(C)c1ccc(NC2=C(Cl)C(=O)c3ccccc3C2=O)cc1` [SJ000109503-1], 3.3 µM.

Turning to `CCn1c2ccccc2c2cc(CN3CCN(Cc4c[nH]c5ccccc45)CC3)ccc21` [SJ000111264-1], the IC50 was determined as 69.9 µM.

Regarding `COc1ccc(C2Nc3ccccc3C(=O)N2Cc2ccccc2)cc1CSc1ccccn1` (centres unmarked) [SJ000111312-2], the IC50 amounted to 69.9 µM. On the same count and under the same terms, the result for `CCn1c2ccccc2c2cc(CNCCc3ccccc3)ccc21` [SJ000111712-1] reads 69.9 µM. Still for that read-out and setting: the figure for `CCn1c2ccccc2c2cc(CN3CCN(Cc4cc(OC)ccc4O)CC3)ccc21` [SJ000111875-2] is 69.9 µM.

With `CCn1c2ccccc2c2cc(CNCc3ccc(OC)cc3)ccc21` [SJ000112430-1], the IC50 was 69.9 µM. The same measure, in the same setting: the result for `CCn1c2ccccc2c2cc(CNCCc3ccc(Cl)cc3)ccc21` [SJ000112458-1] reads 69.9 µM; that for `CCn1c2ccccc2c2cc(CNCCc3ccc4c(c3)OCO4)ccc21` [SJ000112461-1], 69.9 µM. The same measure, in the same setting: the figure for `CCn1c2ccccc2c2cc(CN3CCC(N4CCN(c5ccccc5)CC4)CC3)ccc21` [SJ000112860-1] is 69.9 µM. On the same count and under the same terms, the result for `COc1cc2nc(N3CCN(C(=O)C4COc5ccccc5O4)CC3)nc(N)c2cc1OC` (centres unmarked) [SJ000113084-10] reads 57.1 µM; that for `Cc1ccc(NC2=C(Cl)C(=O)c3ccccc3C2=O)cc1` [SJ000120750-1], 69.9 µM. Regarding `CCOc1ccc(NC2=C(Cl)C(=O)c3ccccc3C2=O)cc1` [SJ000122936-1], the IC50 came out at 69.9 µM. Same read-out and setting: the figure for `CN(C)CCCNC(=O)c1ccc2[nH]c3ccccc3c2c1` [SJ000123281-1] is 69.9 µM; for `COP(=O)(OC)c1nc(-c2ccccc2)oc1N1CCOCC1` [SJ000124835-1] it is 69.9 µM. Same read-out and setting: the result for `CCOC(=O)COc1ccc(-c2nc3c(=O)n(C)c(=O)n(C)c3[nH]2)cc1OC` [SJ000140137-1] reads 69.9 µM. On the same count and under the same terms, the result for `Cc1ccc(-c2nc(S(=O)(=O)c3ccc(Cl)cc3)c(N3CCOCC3)o2)cc1` [SJ000140851-1] reads 69.9 µM; that for `CCCNC1=C(Cl)C(=O)c2ccccc2C1=O` [SJ000141460-3], 69.9 µM; that for `CNC1=C(Cl)C(=O)c2ccccc2C1=O` [SJ000141461-1], 69.9 µM. As to `O=S(=O)(c1ccc(Cl)cc1)c1nc(-c2ccccc2Cl)oc1N1CCOCC1` [SJ000141574-1], the IC50 was determined as 69.9 µM.

Take `CCN1CCN(Cc2ccc3c(c2)c2ccccc2n3CC)CC1` [SJ000142875-1]: the IC50 worked out at 69.9 µM.

In the case of `CCn1c2ccccc2c2cc(CN3CCN(C)CC3)ccc21` [SJ000142908-1], the IC50 turned out to be 69.9 µM. On the same count and under the same terms, the figure for `CCn1c2ccccc2c2cc(CN3CCN(CCO)CC3)ccc21` [SJ000145592-1] is 69.9 µM. On the same count and under the same terms, the figure for `CCOC(=O)N1CCN(Cc2ccc3c(c2)c2ccccc2n3CC)CC1` [SJ000147352-1] is 29.5 µM. For the compound `CCC(CO)NC1=C(Cl)C(=O)c2ccccc2C1=O` (centres unmarked) [SJ000148678-1], the IC50 came to 69.9 µM. The same measure, in the same setting: the figure for `CCC(COC(C)=O)NC1=C(Cl)C(=O)c2ccccc2C1=O` (centres unmarked) [SJ000149466-1] is 17.2 µM; for `CCNC1=C(Cl)C(=O)c2ccccc2C1=O` [SJ000157082-1] it is 69.9 µM; for `Cc1ccc(-c2nc(S(=O)(=O)c3ccccc3)c(N3CCOCC3)o2)cc1` [SJ000159484-1] it is 69.9 µM. For `CCCS(=O)(=O)N1CCN(Cc2ccc3c(c2)c2ccccc2n3CC)CC1` [SJ000167951-1], the IC50 turned out to be 19.2 µM. On the same count and under the same terms, the result for `CCn1c2ccccc2c2cc(CN3CCN(S(C)(=O)=O)CC3)ccc21` [SJ000168261-1] reads 69.9 µM; that for `CCn1c2ccccc2c2cc(CN3CCN(S(=O)(=O)CC)CC3)ccc21` [SJ000168321-1], 69.9 µM.

As to `O=S(=O)(c1ccc(Cl)cc1)c1nc(-c2ccccc2Br)oc1N1CCOCC1` [SJ000184129-1], the IC50 was 69.9 µM. For the compound `Cc1ccc(S(=O)(=O)c2nc(-c3ccccc3Br)oc2N2CCOCC2)cc1` [SJ000185415-1], the IC50 was found to be 69.9 µM.

Turning to `Cc1cc(C)nc(Nc2nc(N)c3ccccc3n2)n1` [SJ000189299-1], the IC50 turned out to be 69.9 µM. Turning to `Cc1ccccc1Nc1nc(N)c2ccccc2n1` [SJ000192476-1], the IC50 turned out to be 69.9 µM. Same read-out and setting: the figure for `COc1ccccc1Nc1nc(N)c2ccccc2n1` [SJ000192505-1] is 69.9 µM; for `Nc1nc(Nc2ccccc2O)nc2ccccc12` [SJ000192933-1] it is 69.9 µM.

In the case of `Cc1ccc(C)c(Nc2nc(N)c3ccccc3n2)c1` [SJ000192944-1], the IC50 worked out at 69.9 µM. On the same count and under the same terms, the result for `CCOc1ccc(-c2nc(S(=O)(=O)c3ccccc3)c(N3CCOCC3)o2)cc1` [SJ000198209-1] reads 69.9 µM; that for `COc1ccc(Cl)cc1Nc1nc(N)c2ccccc2n1` [SJ000200999-1], 69.9 µM. The same measure, in the same setting: the figure for `Cc1ccc(Nc2nc(N)c3ccccc3n2)cc1Cl` [SJ000201287-1] is 69.9 µM. Take `Nc1nc(Nc2ccc(Cl)c(Cl)c2)nc2ccccc12` [SJ000201376-1]: the IC50 was found to be 69.9 µM. Same read-out and setting: the figure for `COc1ccc(C)cc1Nc1nc(N)c2ccccc2n1` [SJ000201566-1] is 69.9 µM.

The same experiment, now with this note: Table 8, representative compounds; read-out: TR-FRET IC50.
Turning to `COc1c2ccoc2nc2c(OC)c(OCC(O)C(C)O)ccc12` (centres unmarked) [SJ000121402], the IC50 was above 69.9 µM.
